Results from US11312726B2, “Thienodiazepine derivatives and application thereof” (priority 2017, dated 2022).
Read-outs that look alike come from different tables or passages of the source.

Tests used:
BRD4-BD2 = BRD4-BD2 (Homo sapiens (Human), UniProt O60885); test: BRD4 biochemical activity test (TR-FRET), BD2; conditions: read-out: BRD4 Binding (BD2), IC50
Excerpt: BRD4 Biochemical Activity Test
1) BRD4-BD1 and BRD4-BD2 proteins of BPS Company, polypeptide of ANASPEC Company, and test reagent of PerkinElmer Company were used in the experiments;
2) The TR-FRET experimental principle was used in the experiment to screen compounds.
3) Relevant control compounds
1) Preparation of the Compound Plate:
Preparation of the compound plate in the experiment was achieved by Echo:
2) Preparation of Reaction Reagents:
Relevant reaction reagents should be prepared on the day of the experiment:
a) Formulation of 1× assay buffer;
b) Formulation of 3× component solution for the experiment: […]
1. The reagent was taken out and placed on ice to naturally melt for later use;
2. “Solution A” (protein solution), “solution B” (polypeptide solution), and “solution C” (test reagent solution) used in the experiment were formulated with the 1× assay buffer, and during the formation of the 3× solution from the components used in the experiment reaction system, the amounts of solutions A, B and C must be enough for the required amounts in the experiment.
3) Experimental Operation Steps:
The experiment plate was a plate that contained a gradient concentration of the compound and a corresponding DMSO solution and was prepared with ECHO before the experiment:
a) The experiment plate was taken out, and 5 μL/well of “solution A” (protein solution) was added to columns 2-23 of the experiment plate, then 5 μL/well of 1× assay buffer was added to columns 1 and 24 of the experiment plate, and columns 1 and 24 were used as Min control in the experiment system;
b) Centrifugation at 1000 rpm was carried out for 30 seconds;
c) The plate was incubated at 23° C. for 20 minutes;
d) After 20 minutes of incubation, 5 μL/well of “solution B” (polypeptide solution) was added to columns 1-24 of the experiment plate;
e) Centrifugation at 1000 rpm was carried out for 30 seconds;
f) The plate was incubated at 23° C. for 20 minutes;
g) After 20 minutes of incubation, 5 μL/well of “solution C” (test reagent solution) was added to columns 1-24 of the experiment plate;
h) Centrifugation at 1000 rpm was carried out for 30 seconds;
i) The plate was incubated at 23° C. for 40 minutes;
j) The experiment plate was placed on EnVision to read the plate.
a) The corresponding Max control and Min control of each experiment plate were used to convert to the Z′ value of the experiment plate, and the Z′ value of each plate was ensured to be >0.5;
b) The IC50 value was calculated from the signal of the control compound by XLFIT5, and ensured to be maintained within 3 times of the average value of historical data.

[1] = In vivo pharmacokinetics test in mice; conditions: female Balb/c mice; for AUC(0-inf): read-out: Curve area (0-inf) AUC0-inf; for AUC(0-t): read-out: Curve area (0-t) AUC0-last; for half-life: read-out: Half life T1/2 (converted)
Protocol: In Vivo Pharmacokinetics Test of Compound 32 in Mice
Female Balb/c mice were used as test animals. The compound 32 was administrated intravenously and intragastrically to mice, then the drug concentrations in the plasma at different time points were determined by the LC/MS/MS method. The in vivo pharmacokinetic behavior of compound 32 in mice was studied, and its pharmacokinetic characteristics were evaluated.
1.1 Experiment drug: Compound 32
1.2 Experiment animals: Sixteen healthy adult female Balb/c mice were divided into four groups according to the principle of similar body weight, with four mice in each group. The animals were purchased from Shanghai Lingchang BioTech Co., Ltd. of Shanghai SLAC Laboratory Animal Co., Ltd., and the animal production license number was SCXK (Shanghai) 2013-0018.
An appropriate amount of the sample was taken, 5% final volume of DMSO was added, and then 95% final volume of 20% HP-β-CD was added. The mixture was ultrasonically stirred to obtain a 0.5 mg/mL clear solution. After filtration, it was used for the intravenous administration.
An appropriate amount of the sample was taken, and dissolved in a 0.5% sodium carboxymethyl cellulose solution. The mixture was ultrasonically stirred to obtain a 0.5 mg/mL homogeneous suspension, which was used for the intragastric administration.
Eight female Balb/c mice were divided into two groups. After fasting overnight, the first group was administered intravenously with the administration volume of 2.5 mL/kg and the dosage of 1 mg/kg. […]
After the female Balb/c mice were intravenously administrated, 30 μL of blood was taken from different mice at each time point of 0.0833, 0.25, 0.5, 1, 2, 4, 8 and 24 hours, and placed in test tubes containing 2 μL of EDTA-K2; and after the female Balb/c mice were intragastrically administrated, 30 μL of blood was taken at an alternative location at each time point of 0.25, 0.5, 1, 2, 4, 8 and 24 hours, and placed in test tubes containing 2 μL of EDTA-K2. The tube was centrifuged at 3000 g for 15 minutes to separate the plasma, and the separated plasma was stored at −60° C. Animals could take food 2 hours after the administration.
The LC/MS/MS method was used to measure the content of the compound to be tested in the plasma after the intravenous and intragastric administration to the mice. The linear range of the method was 2.00-6000 nmol/L; the plasma samples were analyzed after the protein precipitation by acetonitrile treatment.

[2] = mouse, plasma, po, Intragastric, 3 mg/kg (table; text says 2 mg/kg)
[3] = mouse, plasma, Intravenous, 1 mg/kg

## Cc1sc2c(c1C)C(c1ccc(Cl)cc1)=N[C@@H](CC(=O)Nc1ccc3c(c1)COC3=O)c1nnc(C)n1-2 [Compound 32]
BRD4-BD2
  IC50: 10 nM
[1]
  absorption (in words): good absorption
  pharmacokinetic clearance (in words): low pharmacokinetic clearance
[1]; [2]
  AUC(0-inf): 2.82 µM·h
  AUC(0-t): 2.74 µM·h
  half-life: 88.2 min
[1]; mouse, plasma, po, Intragastric, 3 mg/kg (table; text says 2 mg/kg), read-out: Time to peak Tmax
  Tmax: 1 h
[1]; mouse, plasma, Intravenous, 1 mg/kg, read-out: Apparent distribution volume Vdss
  Vd: 1.19 L/kg
[1]; mouse, plasma, Intravenous, 1 mg/kg, read-out: Clearance rate Cl
  clearance: 12.5 mL/min/kg
[1]; [3]
  AUC(0-inf): 2.5 µM·h
  AUC(0-t): 2.49 µM·h
  half-life: 65.4 min
[1]; mouse, po, Intragastric, 3 mg/kg (table; text says 2 mg/kg), plasma, read-out: Drug concentration in blood Cmax
  Cmax: 930 nM
